Tests used:
Experiment in all cases: relative viability (nuclei count vs DMSO), 5 days (fraction); higher = more cells survive
[1] = compound: C1=CC2=NC=CN=C2C=C1/C=C/3\C(=O)NC(=O)S3 + Cc1cc(Nc2cc(N3CCN(C)CC3)nc(Sc3ccc(NC(=O)C4CC4)cc3)n2)n[nH]1 [Tozasertib] (partner 0.1 µM)
Outline: (§1)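 The day after seeding in 1536-well plates, lung cancer cell lines were treated by pin tool with a single drug, or with a fixed anchor-drug dose together with five library-drug doses (not always all listed) in √10 steps. After 5 days, a combined fix-and-stain solution (final 0.05% Triton X-100, 1% formaldehyde, 1 ug/ml Hoechst) was added. Nuclei counted on 4× images gave relative viability as treated counts over vehicle counts, reported as the median of duplicate plates.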

[2] = compound: CCN1CCN(c2ccc(Nc3cc(N(C)C(=O)Nc4c(Cl)c(OC)cc(OC)c4Cl)ncn3)cc2)CC1 [BGJ398] + C[C@@H](Oc1cc(-c2cnn(C3CCNCC3)c2)cnc1N)c1c(Cl)ccc(F)c1Cl [Crizotinib] (partner 1 µM)
Outline: as §1

[3] = compound: CCN1CCN(c2ccc(Nc3cc(N(C)C(=O)Nc4c(Cl)c(OC)cc(OC)c4Cl)ncn3)cc2)CC1 [BGJ398] + Nc1nc2[nH]cc(CCc3ccc(C(=O)N[C@@H](CCC(=O)O)C(=O)O)cc3)c2c(=O)[nH]1 [Pemetrexed] (partner 0.2 µM)
Outline: as §1

[4] = compound: CCN1CCN(c2ccc(Nc3cc(N(C)C(=O)Nc4c(Cl)c(OC)cc(OC)c4Cl)ncn3)cc2)CC1 [BGJ398] + CC1(C)CCC(c2ccc(Cl)cc2)=C(CN2CCN(c3ccc(C(=O)NS(=O)(=O)c4ccc(N[C@H](CCN5CCOCC5)CSc5ccccc5)c(S(=O)(=O)C(F)(F)F)c4)cc3)CC2)C1 [Navitoclax] (partner 0.5 µM)
Outline: as §1

H3255
relative viability ([1]; first compound 0.02 µM): 0.575
relative viability ([1]; first compound 0.06325 µM): 0.644
relative viability ([1]; first compound 0.2 µM): 0.55
relative viability ([1]; first compound 0.6325 µM): 0.602
relative viability ([1]; first compound 2 µM): 0.698
relative viability ([2]; first compound 0.01 µM): 0.798
relative viability ([2]; first compound 0.1 µM): 0.877
relative viability ([2]; first compound 0.3162 µM): 0.634
relative viability ([2]; first compound 1 µM): 0.829
relative viability ([3]; first compound 0.01 µM): 0.608
relative viability ([3]; first compound 0.03162 µM): 0.434
relative viability ([3]; first compound 0.1 µM): 0.604
relative viability ([3]; first compound 0.3162 µM): 0.509
relative viability ([3]; first compound 1 µM): 0.629
relative viability ([4]; first compound 0.01 µM): 0.477
relative viability ([4]; first compound 0.03162 µM): 0.161
relative viability ([4]; first compound 0.1 µM): 0.614
relative viability ([4]; first compound 0.3162 µM): 0.408
relative viability ([4]; first compound 1 µM): 0.548

201T
relative viability ([1]; first compound 0.02 µM): 0.8
relative viability ([1]; first compound 0.06325 µM): 0.922
relative viability ([1]; first compound 0.2 µM): 0.917
relative viability ([1]; first compound 0.6325 µM): 0.873
relative viability ([1]; first compound 2 µM): 0.854
relative viability ([2]; first compound 0.01 µM): 1.12
relative viability ([2]; first compound 0.03162 µM): 0.988
relative viability ([2]; first compound 0.1 µM): 0.996
relative viability ([2]; first compound 0.3162 µM): 1.01
relative viability ([2]; first compound 1 µM): 0.981
relative viability ([3]; first compound 0.01 µM): 0.343
relative viability ([3]; first compound 0.03162 µM): 0.339
relative viability ([3]; first compound 0.1 µM): 0.338
relative viability ([3]; first compound 0.3162 µM): 0.329
relative viability ([3]; first compound 1 µM): 0.334
relative viability ([4]; first compound 0.01 µM): 1.33
relative viability ([4]; first compound 0.03162 µM): 1.19
relative viability ([4]; first compound 0.1 µM): 1.2
relative viability ([4]; first compound 0.3162 µM): 1.2
relative viability ([4]; first compound 1 µM): 1.17

NCI-H2126
relative viability ([1]; first compound 0.02 µM): 0.841
relative viability ([1]; first compound 0.06325 µM): 0.882
relative viability ([1]; first compound 0.2 µM): 0.857
relative viability ([1]; first compound 0.6325 µM): 0.759
relative viability ([1]; first compound 2 µM): 0.528
relative viability ([2]; first compound 0.01 µM): 1.12
relative viability ([2]; first compound 0.03162 µM): 1.01
relative viability ([2]; first compound 0.1 µM): 0.997
relative viability ([2]; first compound 0.3162 µM): 0.955
relative viability ([2]; first compound 1 µM): 1.05
relative viability ([3]; first compound 0.01 µM): 0.724
relative viability ([3]; first compound 0.03162 µM): 0.717
relative viability ([3]; first compound 0.1 µM): 0.689
relative viability ([3]; first compound 0.3162 µM): 0.674
relative viability ([3]; first compound 1 µM): 0.684
relative viability ([4]; first compound 0.01 µM): 0.809
relative viability ([4]; first compound 0.03162 µM): 0.831
relative viability ([4]; first compound 0.1 µM): 0.888
relative viability ([4]; first compound 0.3162 µM): 0.839
relative viability ([4]; first compound 1 µM): 0.902

HOP-62
relative viability ([1]; first compound 0.02 µM): 0.352
relative viability ([1]; first compound 0.06325 µM): 0.354
relative viability ([1]; first compound 0.2 µM): 0.34
relative viability ([1]; first compound 0.6325 µM): 0.328
relative viability ([1]; first compound 2 µM): 0.363
relative viability ([2]; first compound 0.01 µM): 0.755
relative viability ([2]; first compound 0.03162 µM): 1
relative viability ([2]; first compound 0.1 µM): 0.861
relative viability ([2]; first compound 0.3162 µM): 1.13
relative viability ([2]; first compound 1 µM): 0.737
relative viability ([3]; first compound 0.01 µM): 0.375
relative viability ([3]; first compound 0.03162 µM): 0.382
relative viability ([3]; first compound 0.1 µM): 0.335
relative viability ([3]; first compound 0.3162 µM): 0.36
relative viability ([3]; first compound 1 µM): 0.379
relative viability ([4]; first compound 0.01 µM): 0.915
relative viability ([4]; first compound 0.03162 µM): 1
relative viability ([4]; first compound 0.1 µM): 1.1
relative viability ([4]; first compound 0.3162 µM): 1.02
relative viability ([4]; first compound 1 µM): 1.01

CAL-12T
relative viability ([1]; first compound 0.02 µM): 0.289
relative viability ([1]; first compound 0.06325 µM): 0.383
relative viability ([1]; first compound 0.2 µM): 0.346
relative viability ([1]; first compound 0.6325 µM): 0.313
relative viability ([1]; first compound 2 µM): 0.331
relative viability ([2]; first compound 0.01 µM): 0.68
relative viability ([2]; first compound 0.03162 µM): 0.796
relative viability ([2]; first compound 0.1 µM): 0.548
relative viability ([2]; first compound 0.3162 µM): 0.811
relative viability ([2]; first compound 1 µM): 0.631
relative viability ([3]; first compound 0.01 µM): 1.17
relative viability ([3]; first compound 0.03162 µM): 1.21
relative viability ([3]; first compound 0.1 µM): 1.1
relative viability ([3]; first compound 0.3162 µM): 1.34
relative viability ([3]; first compound 1 µM): 1.01
relative viability ([4]; first compound 0.01 µM): 1.12
relative viability ([4]; first compound 0.03162 µM): 1.38
relative viability ([4]; first compound 0.1 µM): 1.37
relative viability ([4]; first compound 0.3162 µM): 1.08
relative viability ([4]; first compound 1 µM): 1.13

NCI-H520
relative viability ([1]; first compound 0.02 µM): 0.394
relative viability ([1]; first compound 0.06325 µM): 0.378
relative viability ([1]; first compound 0.2 µM): 0.451
relative viability ([1]; first compound 0.6325 µM): 0.416
relative viability ([1]; first compound 2 µM): 0.458
relative viability ([2]; first compound 0.01 µM): 0.829
relative viability ([2]; first compound 0.03162 µM): 0.72
relative viability ([2]; first compound 0.1 µM): 0.395
relative viability ([2]; first compound 0.3162 µM): 0.456
relative viability ([2]; first compound 1 µM): 0.281
relative viability ([3]; first compound 0.01 µM): 0.691
relative viability ([3]; first compound 0.03162 µM): 0.532
relative viability ([3]; first compound 0.1 µM): 0.531
relative viability ([3]; first compound 0.3162 µM): 0.341
relative viability ([3]; first compound 1 µM): 0.311
relative viability ([4]; first compound 0.01 µM): 1.11
relative viability ([4]; first compound 0.03162 µM): 1.04
relative viability ([4]; first compound 0.1 µM): 0.833
relative viability ([4]; first compound 0.3162 µM): 0.633
relative viability ([4]; first compound 1 µM): 0.547

NCI-H1755
relative viability ([1]; first compound 0.02 µM): 0.585
relative viability ([1]; first compound 0.06325 µM): 0.562
relative viability ([1]; first compound 0.2 µM): 0.66
relative viability ([1]; first compound 0.6325 µM): 0.51
relative viability ([1]; first compound 2 µM): 0.49
relative viability ([2]; first compound 0.01 µM): 0.907
relative viability ([2]; first compound 0.03162 µM): 0.888
relative viability ([2]; first compound 0.1 µM): 0.884
relative viability ([2]; first compound 0.3162 µM): 0.868
relative viability ([2]; first compound 1 µM): 0.84
relative viability ([3]; first compound 0.01 µM): 0.438
relative viability ([3]; first compound 0.03162 µM): 0.44
relative viability ([3]; first compound 0.1 µM): 0.428
relative viability ([3]; first compound 0.3162 µM): 0.443
relative viability ([3]; first compound 1 µM): 0.427
relative viability ([4]; first compound 0.01 µM): 0.984
relative viability ([4]; first compound 0.03162 µM): 1.04
relative viability ([4]; first compound 0.1 µM): 0.986
relative viability ([4]; first compound 0.3162 µM): 0.968
relative viability ([4]; first compound 1 µM): 1.07

NCI-H2023
relative viability ([1]; first compound 0.02 µM): 0.404
relative viability ([1]; first compound 0.06325 µM): 0.321
relative viability ([1]; first compound 0.2 µM): 0.472
relative viability ([1]; first compound 0.6325 µM): 0.379
relative viability ([1]; first compound 2 µM): 0.335
relative viability ([2]; first compound 0.01 µM): 0.618
relative viability ([2]; first compound 0.03162 µM): 0.62
relative viability ([2]; first compound 0.1 µM): 0.605
relative viability ([2]; first compound 0.3162 µM): 0.747
relative viability ([2]; first compound 1 µM): 0.655
relative viability ([3]; first compound 0.01 µM): 0.279
relative viability ([3]; first compound 0.03162 µM): 0.227
relative viability ([3]; first compound 0.1 µM): 0.248
relative viability ([3]; first compound 0.3162 µM): 0.252
relative viability ([3]; first compound 1 µM): 0.242
relative viability ([4]; first compound 0.01 µM): 0.953
relative viability ([4]; first compound 0.03162 µM): 1.01
relative viability ([4]; first compound 0.1 µM): 1.01
relative viability ([4]; first compound 0.3162 µM): 1.02
relative viability ([4]; first compound 1 µM): 0.993

NCI-H2009
relative viability ([1]; first compound 0.02 µM): 0.747
relative viability ([1]; first compound 0.06325 µM): 0.77
relative viability ([1]; first compound 0.2 µM): 0.721
relative viability ([1]; first compound 0.6325 µM): 0.744
relative viability ([1]; first compound 2 µM): 0.761
relative viability ([2]; first compound 0.01 µM): 1
relative viability ([2]; first compound 0.03162 µM): 1.04
relative viability ([2]; first compound 0.1 µM): 1.02
relative viability ([2]; first compound 0.3162 µM): 1.04
relative viability ([2]; first compound 1 µM): 1.02
relative viability ([3]; first compound 0.01 µM): 1.02
relative viability ([3]; first compound 0.03162 µM): 1.04
relative viability ([3]; first compound 0.1 µM): 1.04
relative viability ([3]; first compound 0.3162 µM): 1.11
relative viability ([3]; first compound 1 µM): 1.09
relative viability ([4]; first compound 0.01 µM): 1.21
relative viability ([4]; first compound 0.03162 µM): 1.19
relative viability ([4]; first compound 0.1 µM): 1.18
relative viability ([4]; first compound 0.3162 µM): 1.23
relative viability ([4]; first compound 1 µM): 1.17

— the supplement of paper PMC10307832
